For data set [1] the following is noted: cited from earlier work.
Data set [2] deals with BT-474 cells (mammary gland cancer cells). The experiment in a line: Screening of genistein antibody-drug conjugate against BT-474 cells. As to conditions: tested as ADC of genistein. The class given is cell-based. From the text: An antibody-drug conjugate (ADC) of genistein was screened against BT-474 cells (mammary gland cancer cells).
The subject of data set [3] is E. faecalis VSE: QC (MMX 101, ATCC 29212). In words: MIC screening, vancomycin vs vancomycin/peptide conjugates. The class given is cell-based. As to conditions: Enterococcus faecalis, ATCC29212. From the text:
(§1) Vancomycin was conjugated to a variety of antibacterial peptides and screened against (a) resistant strains of gram-positive bacteria and b) gram-negative bacteria. See FIG. 20, FIG. 21, FIG. 22, and Table 3.

In data set [4] the test system is E. faecalis VRE (Van B) (MMX 202, ATCC 51299). Described as above. As to conditions: Enterococcus faecalis. The class given is cell-based.
Source text: as §1

Data set [5] concerns K. pneumoniea PSSP (MMX 1195, ATCC 49619). The description is as above. The class given is cell-based.
Source text: as §1

Data set [6] concerns K. pneumoniea KPC-1 (MMX 6902, ATCC BAA-1705). The data set is described as above. Format: cell-based.
Source text: as §1

For data set [7], the system named is E. faecalis VRE (Van A) (MMX 486). The description is as above. Format: cell-based. As to conditions: Enterococcus faecalis.
Source text: as §1

Data set [8] has as its system A. baumannii Wild-type (MMX 1630, ATCC 19606). Described as above. Format: cell-based. As to conditions: Acinetobacter baumannii, ATCC19606.
Source text: as §1

For data set [9], the system named is gram-positive bacteria and gram-negative bacteria. The settings on record: due to the outer cell membrane; cited from earlier work.

Converted amounts (≈) assume the structure as drawn.

One may read the pKa as the pH at which an ionisable group is half protonated. Consider `N[C@@H](CS)C(=O)O` [cysteine], for which the pKa in data set [1] is on record as 8.14.
As for `N[C@@H](C[SeH])C(=O)O` [selenocysteine], the toxicity to cells entry in data set [2] is given as “not toxic to cells”. For the same compound, in data set [1], the pKa is on record as 5.47.
By MIC is commonly meant the least concentration at which growth counts as inhibited. Read a high MIC as weaker potency. `CN[C@H](CC(C)C)C(=O)N[C@H]1C(=O)N[C@@H](CC(N)=O)C(=O)N[C@H]2C(=O)N[C@H]3C(=O)N[C@H](C(=O)N[C@H](C(=O)O)c4cc(O)cc(O)c4-c4cc3ccc4O)[C@H](O)c3ccc(c(Cl)c3)Oc3cc2cc(c3O[C@@H]2O[C@H](CO)[C@@H](O)[C@H](O)[C@H]2O[C@H]2C[C@](C)(N)[C@H](O)[C@H](C)O2)Oc2ccc(cc2Cl)[C@H]1O` [vancomycin]: the MIC in data set [3] was 4 µg/mL (≈ 2.76 µM); in [4] it was 16 µg/mL (≈ 11 µM); in data set [5] it was 0.25 µg/mL (≈ 0.173 µM); in data set [6], more than 64 µg/mL; in data set [7], more than 64 µg/mL; in [8] it was more than 64 µg/mL. In data set [9], the “activity against gram-negative bacteria” value is on record as “not active”.

The record behind these values is patent US10117948B2, “Selective arylation of dichalcogenides in biomolecules” (priority 2015, dated 2018).
